Laboratory results published in patent US12479831B2, “Substituted N(-methyl-D3)pyridazine-3-carboxamide or M-(methyl-D3)-nicotinamide compounds as IL-12, IL-23 and/or IFNα modulators” (BRISTOL-MYERS SQUIBB COMPANY, priority 2020, dated 2025).

tested on: IFNα-Induced STAT Phosphorylation in Human Whole Blood; experiment: IFNα-Induced STAT Phosphorylation in Human Whole Blood; format: cell-based; settings: 1 h incubation with compound, 1000 U/mL recombinant human IFNα A/D for 15 min, pSTAT5 (pY694) median fluorescence intensity in CD3 positive population, read-out: hWB IC50

Point of comparison: [2H]C([2H])([2H])NC(=O)c1nnc(Nc2cn(C)nn2)cc1Nc1cc(F)cc(-c2ncccn2)c1OC [Example 93, 4-((5-fluoro-2-methoxy-3-(pyrimidin-2-yl)phenyl)amino)-N-(methyl-d3)-6-((1-methyl-1H-1,2,3-triazol-4-yl)amino)pyridazine-3-carboxamide], IC50 413 nM. Against it:
- [2H]C([2H])([2H])NC(=O)c1nnc(NC(=O)C2CC2)cc1Nc1cccc(-c2nccc(C#N)n2)c1OC [Example 3, 4-((3-(4-cyanopyrimidin-2-yl)-2-methoxyphenyl)amino)-6-(cyclopropanecarboxamido)-N-(methyl-d3)pyridazine-3-carboxamide] — 2.9-fold lower, 144 nM
- [2H]C([2H])([2H])NC(=O)c1nnc(NC(=O)C2CC2)cc1Nc1cccc(-c2cnc(C(=O)N3CC[C@@H](F)C3)cn2)c1OC [Example 37, (R)-6-(cyclopropanecarboxamido)-4-((3-(5-(3-fluoropyrrolidine-1-carbonyl)pyrazin-2-yl)-2-methoxyphenyl)amino)-N-(methyl-d3)pyridazine-3-carboxamide] — 4.3-fold lower, 97 nM
- [2H]C([2H])([2H])NC(=O)c1nnc(NC(=O)C2CC2)cc1Nc1cccc(-c2nccc(C(=O)N(C)C)n2)c1OC [Example 49, 6-(cyclopropanecarboxamido)-4-((3-(4-(dimethylcarbamoyl)pyrimidin-2-yl)-2-methoxyphenyl)amino)-N-(methyl-d3)pyridazine-3-carboxamide] — within 1.5-fold, 327 nM
- [2H]C([2H])([2H])NC(=O)c1nnc(NC(=O)C2CC2)cc1Nc1cccc(-c2ccc(C(=O)N3CCCC3)cn2)c1OC [Example 45] — 1.9-fold lower, 218 nM
- [2H]C([2H])([2H])NC(=O)c1nnc(NC(=O)C2CC2)cc1Nc1cc(F)cc(-c2ncc(C(=O)N(C)CC)cn2)c1OC [Example 54, 6-(cyclopropanecarboxamido)-4-((3-(5-(ethyl(methyl)carbamoyl)pyrimidin-2-yl)-5-fluoro-2-methoxyphenyl)amino)-N-(methyl-d3)pyridazine-3-carboxamide] — 5.2-fold lower, 80 nM
- [2H]C([2H])([2H])NC(=O)c1nnc(NC(=O)C2CC2)cc1Nc1cccc(-c2ncc(N3CCOCC3)cn2)c1OC [Example 13, 6-(cyclopropanecarboxamido)-4-((2-methoxy-3-(5-morpholinopyrimidin-2-yl)phenyl)amino)-N-(methyl-d3)pyridazine-3-carboxamide] — 4.3-fold lower, 95 nM
- [2H]C([2H])([2H])NC(=O)c1nnc(NC(=O)C2CC2)cc1Nc1cccc(-c2ncc(C(=O)N(C)CC)cn2)c1OC [Example 50, 6-(Cyclopropanecarboxamido)-4-((3-(5-(ethyl(methyl)carbamoyl)pyrimidin-2-yl)-2-methoxyphenyl)amino)-N-(methyl-d3)pyridazine-3-carboxamide] — 10-fold lower, 41 nM
- [2H]C([2H])([2H])NC(=O)c1cnc(Nc2ccn(C)n2)cc1Nc1cccc(-c2ncc(F)cn2)c1OC [Example 65, 4-((3-(5-fluoropyrimidin-2-yl)-2-methoxyphenyl)amino)-N-(methyl-d3)-6-((1-methyl-1H-pyrazol-3-yl)amino)nicotinamide] — 4.8-fold lower, 86 nM
- [2H]C([2H])([2H])NC(=O)c1nnc(NC(=O)C2CC2)cc1Nc1cccc(-c2ncc(C(=O)N3CCC3)cn2)c1OC [Example 48, 4-((3-(5-(azetidine-1-carbonyl)pyrimidin-2-yl)-2-methoxyphenyl)amino)-6-(cyclopropanecarboxamido)-N-(methyl-d3)pyridazine-3-carboxamide] — 3.5-fold lower, 118 nM
- [2H]C([2H])([2H])NC(=O)c1nnc(NC(=O)C2CC2)cc1Nc1cccc(-c2ncc(C(O)(CF)CF)cn2)c1OC [Example 29, 6-(cyclopropanecarboxamido)-4-((3-(5-(1,3-difluoro-2-hydroxypropan-2-yl)pyrimidin-2-yl)-2-methoxyphenyl)amino)-N-(methyl-d3)pyridazine-3-carboxamide] — 11-fold lower, 39 nM
- [2H]C([2H])([2H])NC(=O)c1cnc(Nc2cc(C)n(C)n2)cc1Nc1cccc(-c2ncc(F)cn2)c1OC [Example 63, 6-((1,5-dimethyl-1H-pyrazol-3-yl)amino)-4-((3-(5-fluoropyrimidin-2-yl)-2-methoxyphenyl)amino)-N-(methyl-d3)nicotinamide] — 8.4-fold lower, 49 nM
- [2H]C([2H])([2H])NC(=O)c1nnc(Nc2ccc(C(C)(C)O)cn2)cc1Nc1cc(F)cc(-c2ncccn2)c1OC [Example 104, 4-((5-fluoro-2-methoxy-3-(pyrimidin-2-yl)phenyl)amino)-6-((5-(2-hydroxypropan-2-yl)pyridin-2-yl)amino)-N-(methyl-d3)pyridazine-3-carboxamide] — 10-fold lower, 41 nM
- [2H]C([2H])([2H])NC(=O)c1nnc(Nc2ccc(C(F)(F)F)nn2)cc1Nc1cccc(-c2ncccn2)c1OC [Example 98, 4-((2-methoxy-3-(pyrimidin-2-yl)phenyl)amino)-N-(methyl-d3)-6-((6-(trifluoromethyl)pyridazin-3-yl)amino)pyridazine-3-carboxamide] — 3.7-fold lower, 112 nM
- [2H]C([2H])([2H])NC(=O)c1cnc(Nc2cc(=O)n(C)cn2)cc1Nc1cccc(-c2ncc(F)cn2)c1OC [Example 77, 4-((3-(5-fluoropyrimidin-2-yl)-2-methoxyphenyl)amino)-N-(methyl-d3)-6-((1-methyl-6-oxo-1,6-dihydropyrimidin-4-yl)amino)nicotinamide] — 1.8-fold lower, 228 nM
- [2H]C([2H])([2H])NC(=O)c1nnc(Nc2cc(=O)n(C)cn2)cc1Nc1cccc(-c2ncc(F)cn2)c1OC [Example 106, 4-((3-(5-fluoropyrimidin-2-yl)-2-methoxyphenyl)amino)-N-(methyl-d3)-6-((1-methyl-6-oxo-1,6-dihydropyrimidin-4-yl)amino)pyridazine-3-carboxamide] — 2.7-fold lower, 151 nM
- [2H]C([2H])([2H])NC(=O)c1nnc(NC(=O)C2CC2)cc1Nc1cc(F)cc(-c2ccc(C(=O)N(C)C)cn2)c1OC [Example 44, 6-(cyclopropanecarboxamido)-4-((3-(5-(dimethylcarbamoyl)pyridin-2-yl)-5-fluoro-2-methoxyphenyl)amino)-N-(methyl-d3)pyridazine-3-carboxamide] — 3.8-fold lower, 109 nM
- [2H]C([2H])([2H])NC(=O)c1cnc(Nc2cc(Cl)n(C)n2)cc1Nc1cccc(-c2ncc(F)cn2)c1OC [Example 66, 6-((5-chloro-1-methyl-1H-pyrazol-3-yl)amino)-4-((3-(5-fluoropyrimidin-2-yl)-2-methoxyphenyl)amino)-N-(methyl-d3)nicotinamide] — 2.8-fold lower, 146 nM
